Laboratory results: paper PMC3914206

Columns and labels:
Assay type in all cases: binding
Settings in all cases: Compound Concentration 10 µM
[1] = target: T1, panel of 442 kinases (Homo sapiens, UniProt P09619)
T1 construct: purchased KINOMEscan
Description: (§1) We assessed the selectivity of members of this scaffold using the KINOMEscan methodology across a near comprehensive panel of 442 kinases [[18,27]].

[2] = target: T2, panel of 442 kinases (Homo sapiens, UniProt P00533, G719S)
T2 construct: purchased KINOMEscan
T2 sequence (P00533 25-1210 G719S): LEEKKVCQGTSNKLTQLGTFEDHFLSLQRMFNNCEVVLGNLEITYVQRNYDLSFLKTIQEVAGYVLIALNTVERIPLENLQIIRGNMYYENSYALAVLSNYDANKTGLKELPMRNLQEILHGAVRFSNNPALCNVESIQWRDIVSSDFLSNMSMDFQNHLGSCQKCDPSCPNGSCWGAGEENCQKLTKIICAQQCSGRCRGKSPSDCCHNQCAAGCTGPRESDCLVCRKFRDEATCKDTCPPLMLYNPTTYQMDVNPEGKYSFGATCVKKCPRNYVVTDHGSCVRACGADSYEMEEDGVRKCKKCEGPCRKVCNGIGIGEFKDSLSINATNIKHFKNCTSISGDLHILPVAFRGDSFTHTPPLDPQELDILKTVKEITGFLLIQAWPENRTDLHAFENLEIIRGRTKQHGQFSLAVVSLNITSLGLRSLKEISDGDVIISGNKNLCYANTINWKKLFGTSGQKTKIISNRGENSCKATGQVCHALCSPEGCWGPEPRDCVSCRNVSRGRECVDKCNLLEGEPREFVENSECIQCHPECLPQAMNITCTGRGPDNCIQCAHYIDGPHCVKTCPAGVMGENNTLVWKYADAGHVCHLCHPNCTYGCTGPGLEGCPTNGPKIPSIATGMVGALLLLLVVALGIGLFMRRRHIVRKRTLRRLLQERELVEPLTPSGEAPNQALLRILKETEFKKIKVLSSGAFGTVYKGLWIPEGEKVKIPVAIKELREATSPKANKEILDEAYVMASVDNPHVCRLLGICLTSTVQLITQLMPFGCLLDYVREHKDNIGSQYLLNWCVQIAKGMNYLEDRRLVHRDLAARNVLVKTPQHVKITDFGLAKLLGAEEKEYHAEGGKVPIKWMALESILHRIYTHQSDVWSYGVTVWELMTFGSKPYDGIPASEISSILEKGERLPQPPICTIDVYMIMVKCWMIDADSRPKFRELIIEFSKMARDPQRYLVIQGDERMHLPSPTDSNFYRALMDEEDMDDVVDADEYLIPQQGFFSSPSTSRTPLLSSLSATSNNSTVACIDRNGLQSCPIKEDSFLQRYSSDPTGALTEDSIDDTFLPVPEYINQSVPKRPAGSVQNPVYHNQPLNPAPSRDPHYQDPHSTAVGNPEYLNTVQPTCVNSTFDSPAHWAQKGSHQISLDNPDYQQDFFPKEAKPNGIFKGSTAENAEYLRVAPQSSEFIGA
Description: as §1

[3] = target: T3, panel of 442 kinases (Homo sapiens, UniProt P51451)
T3 construct: purchased KINOMEscan
T3 sequence (P51451 whole entry): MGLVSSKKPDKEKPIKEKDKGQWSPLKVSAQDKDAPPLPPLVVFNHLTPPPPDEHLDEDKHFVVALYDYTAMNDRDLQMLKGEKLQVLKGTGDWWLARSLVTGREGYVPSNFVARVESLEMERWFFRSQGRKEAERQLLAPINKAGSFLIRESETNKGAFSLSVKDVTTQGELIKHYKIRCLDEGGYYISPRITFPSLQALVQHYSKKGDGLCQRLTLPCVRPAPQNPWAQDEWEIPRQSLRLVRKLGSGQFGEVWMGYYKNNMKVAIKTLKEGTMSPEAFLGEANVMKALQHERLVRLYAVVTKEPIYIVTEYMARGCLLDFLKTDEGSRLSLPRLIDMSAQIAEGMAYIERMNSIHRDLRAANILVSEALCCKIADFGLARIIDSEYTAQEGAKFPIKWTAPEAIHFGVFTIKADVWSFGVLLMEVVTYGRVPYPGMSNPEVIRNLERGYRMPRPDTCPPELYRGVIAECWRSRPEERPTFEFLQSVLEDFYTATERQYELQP
Description: as §1

[4] = target: T4, panel of 442 kinases (Homo sapiens, UniProt P42336, E545K)
T4 construct: purchased KINOMEscan
T4 sequence (P42336 whole entry E545K): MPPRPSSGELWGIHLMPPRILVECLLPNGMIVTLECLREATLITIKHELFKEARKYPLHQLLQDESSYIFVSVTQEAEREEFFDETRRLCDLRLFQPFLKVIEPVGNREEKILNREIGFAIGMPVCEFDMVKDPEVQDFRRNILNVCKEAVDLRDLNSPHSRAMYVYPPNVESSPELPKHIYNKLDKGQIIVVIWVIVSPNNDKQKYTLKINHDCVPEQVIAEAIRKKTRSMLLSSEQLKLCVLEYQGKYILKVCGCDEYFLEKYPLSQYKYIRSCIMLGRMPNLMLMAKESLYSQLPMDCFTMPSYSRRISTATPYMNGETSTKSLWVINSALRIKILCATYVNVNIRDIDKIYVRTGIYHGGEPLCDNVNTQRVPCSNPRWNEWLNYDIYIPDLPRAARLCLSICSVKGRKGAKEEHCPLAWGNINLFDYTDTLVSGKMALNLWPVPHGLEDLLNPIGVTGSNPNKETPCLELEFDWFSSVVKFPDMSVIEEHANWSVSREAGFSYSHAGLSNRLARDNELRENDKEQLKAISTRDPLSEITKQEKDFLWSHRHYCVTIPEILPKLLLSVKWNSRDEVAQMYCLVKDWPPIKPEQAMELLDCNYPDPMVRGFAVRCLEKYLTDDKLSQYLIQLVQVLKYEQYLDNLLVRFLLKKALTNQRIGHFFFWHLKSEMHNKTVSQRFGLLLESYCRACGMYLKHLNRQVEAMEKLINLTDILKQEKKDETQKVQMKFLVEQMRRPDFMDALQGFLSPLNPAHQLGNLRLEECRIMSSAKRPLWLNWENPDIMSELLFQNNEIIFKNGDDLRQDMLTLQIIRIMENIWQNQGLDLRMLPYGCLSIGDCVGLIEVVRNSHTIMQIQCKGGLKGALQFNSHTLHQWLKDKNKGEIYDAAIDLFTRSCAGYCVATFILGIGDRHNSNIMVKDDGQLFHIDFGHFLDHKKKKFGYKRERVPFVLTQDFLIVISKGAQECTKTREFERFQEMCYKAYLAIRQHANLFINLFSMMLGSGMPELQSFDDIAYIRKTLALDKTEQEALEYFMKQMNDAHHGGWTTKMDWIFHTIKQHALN
Description: as §1

T1 sequence (P09619 33-1106): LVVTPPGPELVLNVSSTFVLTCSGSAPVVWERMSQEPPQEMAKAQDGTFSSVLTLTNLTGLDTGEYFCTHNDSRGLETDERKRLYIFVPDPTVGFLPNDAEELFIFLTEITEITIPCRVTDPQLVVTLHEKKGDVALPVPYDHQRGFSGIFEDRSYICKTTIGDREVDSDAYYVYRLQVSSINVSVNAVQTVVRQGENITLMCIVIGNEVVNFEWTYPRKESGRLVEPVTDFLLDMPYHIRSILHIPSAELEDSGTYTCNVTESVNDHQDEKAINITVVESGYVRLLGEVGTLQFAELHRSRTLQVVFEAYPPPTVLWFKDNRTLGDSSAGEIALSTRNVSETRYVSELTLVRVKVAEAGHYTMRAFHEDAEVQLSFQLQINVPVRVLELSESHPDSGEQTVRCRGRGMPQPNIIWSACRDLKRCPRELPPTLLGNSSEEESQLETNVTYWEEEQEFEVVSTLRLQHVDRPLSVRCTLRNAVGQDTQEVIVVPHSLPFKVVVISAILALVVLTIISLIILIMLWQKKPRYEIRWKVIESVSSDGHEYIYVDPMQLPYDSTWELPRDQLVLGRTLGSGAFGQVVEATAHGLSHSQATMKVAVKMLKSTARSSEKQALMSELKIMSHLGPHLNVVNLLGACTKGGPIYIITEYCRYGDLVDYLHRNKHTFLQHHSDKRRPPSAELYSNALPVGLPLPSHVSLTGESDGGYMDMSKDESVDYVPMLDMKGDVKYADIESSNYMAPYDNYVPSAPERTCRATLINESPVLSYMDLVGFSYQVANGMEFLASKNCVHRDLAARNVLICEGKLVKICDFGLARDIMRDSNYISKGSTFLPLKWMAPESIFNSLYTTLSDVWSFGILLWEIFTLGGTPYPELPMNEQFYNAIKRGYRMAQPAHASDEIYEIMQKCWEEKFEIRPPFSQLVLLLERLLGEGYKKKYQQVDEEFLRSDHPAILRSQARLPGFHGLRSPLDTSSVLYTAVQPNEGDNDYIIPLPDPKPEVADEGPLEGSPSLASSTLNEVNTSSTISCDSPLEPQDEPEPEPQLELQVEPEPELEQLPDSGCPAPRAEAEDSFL

SMILES	KINOMEscan: PDGFRB [1]	KINOMEscan: EGFR(G719S) [2]	KINOMEscan: BLK [3]	KINOMEscan: PIK3CA(E545K) [4]
COc1cc(C(=O)N2CCC(N3CCN(C)CC3)CC2)ccc1Nc1ncc2c(n1)N1CCc3cccc(c31)C(=O)N2C [Compound 24]	67	81		
CCOc1cc(C(=O)N2CCC(N3CCN(C)CC3)CC2)ccc1Nc1ncc2c(n1)N(C1CCCC1)c1ccccc1C(=O)N2C [Compound 26]	100	96	100	100
COc1cc(C(=O)N2CCC(N3CCN(C)CC3)CC2)ccc1Nc1ncc2c(n1)N(C1CCCC1)c1ccccc1C(=O)N2C [Compound 25, 11-cyclopentyl-2-((2-methoxy-4-(4-(4-methylpiperazin-1-yl)piperidine-1-carbonyl)phenyl)amino)-5-methyl-5H-benzo[e]pyrimido[5,4-b][1,4]diazepin-6(11H)-one]	83	86	100	100
COc1cc(C(=O)N2CCC(N3CCN(C)CC3)CC2)ccc1Nc1ncc2c(n1)N(C)c1ccccc1C(=O)N2C [15 (LRRK2-IN-1)]	100	86	97	100
